In patent US7977474B2, “Uses of porphyrin compounds” (Destiny Pharma Ltd., priority 2004, dated 2011):
Where two headings read alike, the source gives them in different places.

Legend:
[1] = tested on: Staphylococcus aureus BAA-44, a multi-drug resistant Methicillin Resistant Staphylococcus aureus (MRSA) strain; assay: MIC and MBC of Compound 10 in the absence of light (Example B); type: cell-based
Excerpt: The minimum inhibitory concentration (MIC) for an antimicrobial agent against a specific microorganism is defined as the minimum concentration of an antibacterial agent where no apparent visible growth of the organism is observed (FDA definition of Minimum Inhibitory Concentration). MIC's are typically determined using concentrations derived traditionally from serial twofold dilutions (National Committee for Clinical Laboratory Standards (NCCLS) Handbook M7-A5: “Methods for Dilution Antimicrobial Susceptibility Tests for Bacteria that Grow Aerobically; Approved Standard—5th Edition” Volume 20 Number 2. January 2000). The MIC for Compound 10 in the absence of light was investigated, using a protocol based on the MIC protocol produced by the NCCLS (National Committee for Clinical Laboratory Standards (NCCLS) Handbook M7-A5, supra).
Staphylococcus aureus BAA-44, a multi-drug resistant Methicillin Resistant Staphylococcus aureus (MRSA) strain obtained from the ATCC catalogue, was used in this study. The following concentrations of Compound 10 were investigated: 0.764; 0.382: 0.191; 0.0955; 0.0478; 0.0239, 0.0119, 0.00597, 0.00298, 0.00149, 0.00075 & 0.00037 μg/mL. Stock solutions were made up in distilled water and serial dilutions undertaken of this to produce the required concentrations immediately prior to use.
At least 3 to 5 well-isolated colonies of the same morphological type were selected from an agar plate culture and the growth transferred to a tube containing 100 mL of Isosensitest Broth and the broth culture is incubated at 37° C. overnight. The culture was then be diluted to a final density of 10^4 cells/mL with fresh Isosensitest Broth and incubated with shaking at 37° C. until the cells entered exponential growth.
0.09 mL of the adjusted inoculum was transferred into each of 24 wells of a polystyrene 96 well microtiter plate. A control well of bacteria alone in the presence of growth medium alone was included (as a positive control).
0.09 mL of the Compound 10 stock solutions from the dilution series were pipetted into the relevant well for the microtiter plates and incubated in the dark at 37° C. and the plates examined after 24 hours incubation to determine the turbidity in each well.

[2] = tested on: Staphylococcus aureus (methicillin resistant); assay: MIC (IsoSensitest broth) and MBC (subculture on blood agar), reference strains and clinical isolates (Example C); type: cell-based
Description: (§1) The Minimum Inhibitory Concentrations (MIC's) for Compound 10, over a range of reference strains and clinical isolates, were determined using IsoSensitest® broth and Minimum Bactericidal concentrations (MBC's) determined by subculture onto Columbia blood agar.
(§2) • 1. A 5 mg/ml stock solution of Compound 10 was made up in water • 2. A series of dilutions were undertaken to produce a range of concentrations between 32-0.001 mg/L • 3. The test microorganisms were grown up overnight in IsoSensitest® broth • 4. The cultures were then diluted with fresh broth to a final concentration of 10^4 organisms/ml and placed on a shaker for 90 minutes at 37° C. • 5. 90 μl of the broth culture containing the microorganisms were transferred to each of 12 wells in a row in a microtitre tray and repeated in a control tray—four organisms per tray. • 6. 90 μL of the appropriate Compound 10 dilution was then added to each well containing organisms to give a final dilution series from 16 mg/L to 0.0005 mg/L • 7. The solutions were mixed well and incubated in the dark for 24 hours • 8. […] The MBC values were recorded after overnight incubation of the subcultures. • 10. Controls of uninoculated broth and broth plus inoculum were undertaken for each organism in each tray Results

Enterococcus faecalis = assay: MIC and MBC, reference strains and clinical isolates (Example C); type: cell-based
Description: as §1, §2

Enterococcus faecium = assay: as above; type: cell-based
Description: as §1, §2

[3] = tested on: Staphylococcus aureus (methicillin sensitive); assay: as above; type: cell-based
Description: as §1, §2

[4] = tested on: Staphylococcus epidermidis (methicillin resistant); assay: as above; type: cell-based; conditions: for MIC: Staphylococcus epidermidis, dark 24 hours
Description: as §1, §2

[5] = tested on: Staphylococcus epidermidis (methicillin sensitive); assay: as above; type: cell-based; conditions: 37453, clinical isolate
Description: as §1, §2

[6] = tested on: normal human epidermal keratinocytes (NHEK); assay: Toxicity against human skin cells, MTT-assay (Example D); type: cell-based; conditions: 0.01-10 μM, 5 min, 1 h and 4 h incubation, then 24 h in the dark
Description: NHEK were incubated with different concentrations of Compound 10 for 5 min, 1 h and 4 h (0 μM, 0.01 μM, 0.1 μM, 1.0 μM, 10 μM). Cells were then incubated for 24 h in the dark. Toxicity was tested by standard MTT-assay. Cell viability was normalised to one, which means, the values of control cells were normalised to one. Red dotted line: 5 min incubation; black dotted: 1 h incubation; blue dotted: 4 h incubation only; (n=3, mean±SD).
(§3) Test compounds were screened for toxicity against cultured human skin cells using normal human epidermal keratinoctes (NHEK) and normal human dermal fibroblasts (NHDF), purchased from CellSystems Biotechnologie GmbH, Germany.
(§4) The NHEK and NHDF cells were used between passages 3 and 10. The cells were seeded with 7.5 and/or 15×10^4 cells/well (microtitre plate) and were allowed to attach overnight in an incubator (37° C., 5% CO2). After incubation with different concentrations of the selected photosensitisers for various times, the cells were incubated for 24 hours in the dark.
(§5) Toxicity was tested by standard MTT-assay (Mossman et al., 1983 J. Immunological Methods 65: 55-63). MTT is an indicator of metabolically active cells. Dependent on enzyme activity in mitochondria a colour reaction can be visualised, which can be measured by ELISA reader (540 nm). […]

[7] = tested on: normal human dermal fibroblasts (NHDF); assay: as above; type: cell-based; conditions: 0.01-10 μM, 5 min, 1 h and 4 h incubation, then 24 h in the dark
Description: NHDF were incubated with different concentrations of Compound 10 for 5 min, 1 h and 4 h (0 μM, 0.01 μM, 0.1 μM, 1.0 μM, 10 μM). Cells were then incubated for 24 h in the dark. Toxicity was tested by standard MTT-assay. Cell viability was normalised to one, which means, the values of control cells were normalised to one. Grey dotted line: 5 min incubation; black dotted: 1 h incubation; black line: 4 h incubation; (n=3, mean±SD).
as §3, §4, §5

[8] = Acute dermal toxicity test (OECD 402) (Example G); type: in vivo; conditions: 3.2 mM in a topical formulation
Description: Compound 10 was tested at 3.2 mM in a topical formulation in a standard acute dermal toxicity test to determine if any clinical or histological toxicity for the compound could be detected.
The acute toxicity protocol was based on OECD Guidelines for the testing of chemicals/Section 4—Health Effects Test Number 402: Acute Dermal Toxicity.

Escherichia coli = conditions: visible light after incubation; Valduga et al., 1999; cited from earlier work

C[N+](C)(C)CCCOc1ccc(-c2c3nc(cc4ccc([nH]4)c(-c4ccc(OCCC[N+](C)(C)C)cc4)c4nc(cc5ccc2[nH]5)C=C4)C=C3)cc1 [Compound 10, 5,15-bis-[4-(3-Trimethylammonio-propyloxy)-phenyl]-porphyrin dichloride]
MIC ([1]; Series 2, dark): 0.0955 µg/mL
MIC ([1]; Staphylococcus aureus, Series 1, dark, read-out: MIC): 0.0955 µg/mL
MBC ([1]; Staphylococcus aureus, absence of light): 0.382 µg/mL
MIC ([1]; Staphylococcus aureus, absence of light, 24 hours incubation at 37° C., read-out: MIC): 0.0955 µg/mL
MIC ([2]; 24 h, EMRSA-16, clinical isolate, dark 24 hours): 0.5 µg/mL
MIC ([2]; ATCCBAA44, 24 h, ATCC BAA-44 Experiment 1, dark 24 hours): 0.5 µg/mL
MIC ([2]; ATCCBAA44, 24 h, ATCC BAA-44 Experiment 2, dark 24 hours): 0.5 µg/mL
MIC ([2]; ATCCBAA44, 24 h, ATCC BAA-44 Experiment 3, dark 24 hours): 2 µg/mL
MIC ([2]; ATCCBAA44, 24 h, ATCC BAA-44 Experiment 4, dark 24 hours): 0.5 µg/mL
MIC ([2]; ATCCBAA44, 24 h, ATCC BAA-44 Experiment 5, dark 24 hours): 0.5 µg/mL
MIC ([2]; ATCCBAA44, 24 h, ATCC BAA-44 Experiment 6, dark 24 hours): 0.5 µg/mL
MBC ([2]; ATCCBAA44, ATCC BAA-44 Experiment 1): 0.5 µg/mL
MBC ([2]; ATCCBAA44, ATCC BAA-44 Experiment 2): 1 µg/mL
MBC ([2]; ATCCBAA44, ATCC BAA-44 Experiment 3): 2 µg/mL
MBC ([2]; ATCCBAA44, ATCC BAA-44 Experiment 4): 1 µg/mL
MBC ([2]; ATCCBAA44, ATCC BAA-44 Experiment 5): > 1 µg/mL
MBC ([2]; ATCCBAA44, ATCC BAA-44 Experiment 6): 1 µg/mL
MBC ([2]; EMRSA-15, clinical isolate): 1 µg/mL
MBC ([2]; EMRSA-16, clinical isolate): 0.5 µg/mL
MIC ([2]; NCTC11939, 24 h, NCTC 11939 (EMRSA-1), dark 24 hours): 0.5 µg/mL
MBC ([2]; NCTC11939, NCTC 11939 (EMRSA-1)): 0.5 µg/mL
MBC (Enterococcus faecalis; ATCC29212, ATCC 29212): > 1 µg/mL
MBC (Enterococcus faecalis; E3, clinical isolate): 1 µg/mL
MIC (Enterococcus faecalis; E3, clinical isolate, dark 24 hours): 0.5 µg/mL
MBC (Enterococcus faecalis; E4, clinical isolate): 0.5 µg/mL
MBC (Enterococcus faecalis; E10, clinical isolate): 1 µg/mL
MBC (Enterococcus faecalis; E37, clinical isolate): 1 µg/mL
MBC (Enterococcus faecium; E1, clinical isolate): 1 µg/mL
MIC (Enterococcus faecium; E1, clinical isolate, dark 24 hours): 0.5 µg/mL
MBC (Enterococcus faecium; E5, clinical isolate): 1 µg/mL
MBC (Enterococcus faecium; E19, clinical isolate): 0.5 µg/mL
MBC (Enterococcus faecium; E44, clinical isolate): 0.5 µg/mL
MBC (Enterococcus faecium; NCTC12204, NCTC 12204): 1 µg/mL
MBC ([3]; ATCC25923, ATCC 25923): 1 µg/mL
MIC ([3]; ATCC25923, ATCC 25923, dark 24 hours): 0.5 µg/mL
MBC ([3]; NCTC6571, NCTC 6571): 0.5 µg/mL
MIC ([3]; NCTC6571, NCTC 6571, dark 24 hours): 0.5 µg/mL
MBC ([4]; Staphylococcus epidermidis, 33659, clinical isolate): 1 µg/mL
MBC ([4]; Staphylococcus epidermidis, 33759, clinical isolate): 1 µg/mL
MBC ([4]; Staphylococcus epidermidis, 36572, clinical isolate): 0.25 µg/mL
MBC ([4]; Staphylococcus epidermidis, 38808, clinical isolate): 0.5 µg/mL
MIC ([4]; 24 h, 33659, clinical isolate): 0.5 µg/mL
MIC ([4]; 24 h, 33759, clinical isolate): 0.5 µg/mL
MIC ([4]; 24 h, 36572, clinical isolate): 0.25 µg/mL
MIC ([4]; 24 h, 38808, clinical isolate): 0.5 µg/mL
MBC [5]: 0.5 µg/mL
MIC ([5]; dark 24 hours): 0.5 µg/mL
innate toxicity (MTT cell viability) [6]: does not demonstrate an innate toxicity
innate toxicity (MTT cell viability) [7]: does not demonstrate an innate toxicity
histological toxicology of major organs [8]: No histological toxicology of any major organ (including the skin) was observed
acute toxic effect ([8]; dermal): does not result in any acute toxic effect
clinical toxicology ([8]; clinical, macroscopic and microscopic observation): no clinical toxicology was observed

C[n+]1ccc(-c2c3nc(c(-c4cc[n+](C)cc4)c4ccc([nH]4)c(-c4cc[n+](C)cc4)c4nc(c(-c5cc[n+](C)cc5)c5ccc2[nH]5)C=C4)C=C3)cc1 [Compound T4MPyP, 5,10,15,20-tetrakis-(4-N-methylpyridyl)-porphine]
inactivation of Escherichia coli (Escherichia coli): efficiently inactivated
